Measured values taken from patent publication EP0942911B1, “BENZOPYRANOPYRROLE AND BENZOPYRANOPYRIDINE ALPHA-1 ADRENERGIC COMPOUNDS” (Abbott Laboratories, priority 1996, dated 1998).
Counter-ions that a name gives are not always drawn.

These compounds were tested against T1, α-1d adrenoreceptor (Rattus norvegicus, UniProt P23944) (assay: biochemical). Settings: [3H]-prazosin radioligand; cloned receptor in LTK cell membranes; read-out: Radioligand Binding (Ki, nM) 1d (Rat).
T1 sequence (P23944 1-561): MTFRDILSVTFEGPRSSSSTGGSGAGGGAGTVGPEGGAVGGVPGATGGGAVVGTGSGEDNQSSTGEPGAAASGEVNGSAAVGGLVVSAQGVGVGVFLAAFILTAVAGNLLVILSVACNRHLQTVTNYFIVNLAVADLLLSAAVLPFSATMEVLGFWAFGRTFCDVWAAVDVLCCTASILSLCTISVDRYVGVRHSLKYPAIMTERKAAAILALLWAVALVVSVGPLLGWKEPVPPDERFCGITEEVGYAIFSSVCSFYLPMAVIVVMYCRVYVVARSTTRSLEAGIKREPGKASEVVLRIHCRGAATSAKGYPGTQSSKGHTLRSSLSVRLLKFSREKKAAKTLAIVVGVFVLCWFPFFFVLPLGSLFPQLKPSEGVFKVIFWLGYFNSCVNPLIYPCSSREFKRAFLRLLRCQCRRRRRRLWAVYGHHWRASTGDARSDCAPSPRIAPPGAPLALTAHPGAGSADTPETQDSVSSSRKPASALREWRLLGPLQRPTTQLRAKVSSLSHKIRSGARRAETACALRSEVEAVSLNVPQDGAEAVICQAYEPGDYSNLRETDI
Assay type: binding
Summary of the method: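 LTK mouse fibroblasts stably transfected with α-1a, α-1b or α-1d cDNA → roller-bottle culture 5 days at 37 °C → membranes in 50 mM Tris-HCl, stored at -70 °C → radioligand binding → scintillation counting.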
“3-[4-((3aR,9bR)-cis-9-Methoxy-1,2,3,3a,4,9b-hexahydro-[1]-benzopyrano[3,4-c]pyrrol-2-yl]butyl]-7-methoxy-pyrido[3',2':4,5]thieno[3,2-d]pyrimidine-2,4(1H,3H)-dione hydrochloride [Example 33]” showed a Ki of 0.701 nM. `COc1cc2[nH]c(=O)n(CCCCN3C[C@@H]4COc5ccccc5[C@@H]4C3)c(=O)c2cc1OC` (racemic) [Example 81, 3-[4-((±1-cis-1,2,3,3a,4,9b-hexahydro-[1]-benzopyrano[3,4-c]pyrrol-2-yl)butyl]-6,7-dimethoxy-quinazoline-2,4(1H,3H)-dione hydrochloride] gave a Ki of 0.108 nM. For `COc1cccc2c1[C@@H]1CCN(CCCCn3c(=O)[nH]c4c(sc5ncccc54)c3=O)C[C@H]1CO2` (racemic) [Example 85, 3-[4-((±)-trans-10-Methoxy-1,3,4,4a,5,10b-hexahydro-2H-[1]-benzopyrano[3,4-c]pyrido-3-yl)butyl]-pyrido[3',2':4,5]thieno[3,2-d]pyrimidine-2,4(1H,3H)-dione dihydrochloride], the Ki was 0.566 nM. With `COc1cnc2sc3c(=O)n(CCCCN4CC5COc6cccc(OC)c6[C@@H]5C4)c(=O)[nH]c3c2n1.Cl` (stereo in doubt) [Example 43, 3-[4-((3aS,9bR)-trans-9-Methoxy-1,2,3,3a,4,9b-hexahydro-[1]-benzopyrano[3,4-c]pyrrol-2-yl)butyl]-8-methoxy-pyrazino[2',3':4,5]thieno[3,2-d]pyrimidine-2,4(1H,3H)-dione hydrochloride] the Ki was 0.063 nM. In the case of `COc1cccc2c1[C@@H]1CN(CCCCn3c(=O)[nH]c4c(sc5cccnc54)c3=O)C[C@@H]1CO2` [Example 1, 3-[4-((3aR,9bR)-cis-9-Methoxy-1,2,3,3a,4,9b-hexahydro-[1]-benzopyrano[3,4-c]pyrrol-2-yl)butyl]-pyrido[2',3':4,5]thieno[3,2-d]pyrimidine-2,4(1H,3H)-dione hydrochloride], the Ki is reported as 0.223 nM. Compound `COc1cccc2c1[C@H]1CN(CCCCn3c(=O)[nH]c4c(sc5cccnc54)c3=O)C[C@H]1CO2` [Example 2, 3-[4-((3aS,9bS)-cis-9-Methoxy-1,2,3,3a,4,9b-hexahydro-[1]-benzopyrano[3,4-c]pyrrol-2-yl)butyl]-pyrido[2',3':4,5]thieno[3,2-d]pyrimidine-2,4(1H,3H)-dione hydrochloride] has a Ki of 2.72 nM. Compound `COc1cccc2c1[C@@H]1CN(CCCCn3c(=O)[nH]c4c(sc5cccnc54)c3=O)C[C@H]1CO2` [Example 3, 3-[4-((3aS,9bR)-trans-9-Methoxy-1,2,3,3a,4,9b-hexahydro-[1]-benzopyrano[3,4-c]pyrrol-2-yl)butyl]-pyrido[2',3':4,5]thieno[3,2-d]pyrimidine-2,4(1H,3H)-dione hydrochloride] has a Ki of 0.041 nM. With `COc1cccc2c1[C@@H]1CN(CCCCn3c(=O)[nH]c4c(sc5ccnc(Cl)c54)c3=O)C[C@@H]1CO2` [Example 48, 3-[4-((3aR,9bR)-cis-9-Methoxy-1,2,3,3a,4,9b-hexahydro-[1]-benzopyrano[3,4-c]pyrrol-2-yl)butyl]-9-chloro-pyrido[3',4';4,5]thieno[3,2-d]pyrimidine-2,4(1H,3H)-dione hydrochloride] the Ki was 0.467 nM. Work on `COc1cccc2c1[C@@H]1CN(CCCCn3c(=O)[nH]c4c(sc5ccnc(OC)c54)c3=O)C[C@H]1CO2` [Example 49, 3-[4-((3aS,9bR)-trans-9-Methoxy-1,2,3,3a,4,9b-hexahydro-[1]-benzopyrano[3,4-c]pyrrol-2-yl)butyl]-9-methoxy-pyrido[3',4':4,5]thieno[3,2-d]pyrimidine-2,4(1H,3H)-dione fumarate] yielded a Ki of 0.019 nM. For `COc1cccc2c1[C@@H]1CN(CCCCn3c(=O)[nH]c4c(sc5c(Cl)nccc54)c3=O)C[C@H]1CO2` [Example 54, 3-[4-((3aS,9bR)-trans-9-Methoxy-1,2,3,3a,4,9b-hexahydro-[1]-benzopyrano[3,4-c]pyrrol-2-yl)butyl]-6-chloro-pyrido[4',3':4,5]thieno[3,2-d]pyrimidine-2,4(1H,3H)-dione], the Ki was 0.173 nM. Work on `COc1cccc2c1[C@@H]1CCN(CCCCn3c(=O)[nH]c4c(sc5cccnc54)c3=O)C[C@H]1CO2` [Example 95, 3-[4-((4aS,10bR)-trans-10-Methoxy-1,3,4,4a,5,10b-hexahydro-2H-[1]-benzopyrano[3,4-c]pyrido-3-yl)butyl]-pyrido[2',3':4,5]thieno[3,2-d]pyrimidine-2.4(1H,3H)-dione dihydrochloride] yielded a Ki of 23 nM.

Same assay, conditions: read-out: Radioligand Binding (Ki, nM) 1d (Rat)
For `COc1ccc2c(c1)OC[C@H]1CN(CCn3c(=O)[nH]c4c(sc5ccccc54)c3=O)C[C@@H]21.Cl` (racemic) [Example 63, 3-[2-((±)-cis-7-Methoxy-1,2,3,3a,4,9b-hexahydro-[1]-benzopyrano[3,4-c]pyrrol-2-yl)ethyl]-[1]benzthieno[3,2-d]pyrimidine-2,4(1H,3H)-dione hydrochloride], the Ki was 70.1 nM. `COc1ccc2c(c1)OC[C@H]1CN(CCCn3c(=O)[nH]c4c(sc5ccccc54)c3=O)C[C@@H]21.Cl` (racemic) [Example 64, 3-[3-((±)-cis-7-Methoxy-1,2,3,3a,4,9b-hexahydro-[1]-benzopyrano[3,4-c]pyrrol-2-yl)propyl]-[1]benzthieno[3,2-d]pyrimidine-2,4(1H,3H)-dione hydrochloride] gave a Ki of 10.4 nM. `COc1cccc2c1[C@@H]1CN(CCn3c(=O)[nH]c4c(sc5ccccc54)c3=O)C[C@@H]1CO2.Cl` (racemic) [Example 65, 3-[2-((±)-cis-9-Methoxy-1,2,3,3a,4,9b-hexahydro-[1]-benzopyrano[3,4-c]pyrrol-2-yl)ethyl]-[1]benzthieno[3,2-d]pyrimidine-2,4(1H,3H)-dione hydrochloride] was tested, and the Ki was 25 nM. With `COc1cccc2c1[C@@H]1CN(CCCn3c(=O)[nH]c4c(sc5ccccc54)c3=O)C[C@@H]1CO2.Cl` (racemic) [Example 66, 3-[3-((±)-cis-9-Methoxy-1,2,3,3a,4,9b-hexahydro-[1]-benzopyrano[3,4-c]pyrrol-2-yl)propyl]-[1]benzthieno[3,2-d]pyrimidine-2,4(1H,3H)-dione hydrochloride] the Ki was 87.7 nM. `COc1cccc2c1OC[C@H]1CN(CCn3c(=O)[nH]c4c(sc5ccccc54)c3=O)C[C@@H]21.Cl` (racemic) [Example 67, 3-[2-((±)-cis-6-Methoxy-1,2,3,3a,4,9b-hexahydro-[1]-benzopyrano[3,4-c]pyrrol-2-yl)ethyl]-[1]benzthieno[3,2-d]pyrimidine-2,4(1H,3H)-dione hydrochloride] was tested, and the Ki was 65 nM. `COc1cccc2c1OC[C@H]1CN(CCCn3c(=O)[nH]c4c(sc5ccccc54)c3=O)C[C@@H]21.Cl` (racemic) [Example 68, 3-[3-((±)-cis-6-Methoxy-1,2,3,3a,4,9b-hexahydro-[1]-benzopyrano[3,4-c]pyrrol-2-yl)propyl]-[1]benzthieno[3,2-d]pyrimidine-2,4(1H,3H)-dione hydrochloride] was tested, and the Ki was 42.5 nM. `Cl.O=c1[nH]c2c(sc3ccccc32)c(=O)n1CCN1C[C@@H]2COc3ccccc3[C@@H]2C1` (racemic) [Example 69, 3-[2-((±)-cis-1,2,3,3a,4,9b-hexahydro-[1]-benzopyrano[3,4-c]pyrrol-2-yl)ethyl]-[1]benzthieno[3,2-d]pyrimidine-2,4(1H,3H)-dione hydrochloride] was tested, and the Ki was 1.63 nM. `O=c1[nH]c2c(sc3cccnc32)c(=O)n1CCCCN1C[C@@H]2COc3ccccc3[C@@H]2C1` (racemic) [Example 70, 3-[4-((±)-cis-1,2,3,3a,4,9b-hexahydro-[1]-benzopyrano[3,4-c]pyrrol-2-yl)butyl]-pyrido[2',3':4,5]thieno[3,2-d]pyrimidine-2,4(1H,3H)-dione dihydrochloride] showed a Ki of 0.482 nM. In the case of `COc1cccc2c1[C@H]1CN(CCCCn3c(=O)[nH]c4c(sc5nccnc54)c3=O)C[C@@H]1CO2.Cl.Cl` (racemic) [Example 74, 3-[4-((±)-trans-9-Methoxy-1,2,3,3a,4,9b-hexahydro-[1]-benzopyrano[3,4-c]pyrrol-2-yl)butyl]-pyrazino[2',3':4,5]thieno[3,2-d]pyrimidine-2,4(1H,3H)-dione dihydrochloride], the Ki is reported as 2.94 nM.

What follows are compounds tested against T2, α-1A adrenoreceptor (Rattus norvegicus, UniProt P43140) (assay: cell-based). Settings: phenylephrine-induced contraction; Schild plot.
T2 sequence (P43140 1-466): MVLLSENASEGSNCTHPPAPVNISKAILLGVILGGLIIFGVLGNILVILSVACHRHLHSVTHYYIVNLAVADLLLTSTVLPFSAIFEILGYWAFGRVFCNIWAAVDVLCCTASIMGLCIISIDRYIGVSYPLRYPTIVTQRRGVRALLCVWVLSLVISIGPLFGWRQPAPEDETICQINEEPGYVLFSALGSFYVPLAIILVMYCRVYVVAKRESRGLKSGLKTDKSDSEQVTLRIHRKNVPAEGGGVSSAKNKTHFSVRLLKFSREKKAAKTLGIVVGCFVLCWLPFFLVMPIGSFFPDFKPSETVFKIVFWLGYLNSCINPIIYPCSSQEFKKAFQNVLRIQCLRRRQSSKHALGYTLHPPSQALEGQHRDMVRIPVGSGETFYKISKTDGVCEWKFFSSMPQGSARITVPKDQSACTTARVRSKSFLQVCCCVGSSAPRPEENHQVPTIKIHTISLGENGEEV
Description: Functional assays indicative of pharmacologically defined α-1 adrenoreceptors were used to further characterize compounds. Inhibition of phenylephrine (PE)-induced contraction of canine prostate smooth muscle can be correlated with α-1A adrenoreceptor activation. […] For each of these models, agonist dose response curves were repeated against increasing concentrations of test agent to derive a Schild plot [log ([…]) against log (molarity of test agent)] to determine the pA2.
In the case of “3-[4-((3aR,9bR)-cis-9-Methoxy-1,2,3,3a,4,9b-hexahydro-[1]-benzopyrano[3,4-c]pyrrol-2-yl]butyl]-7-methoxy-pyrido[3',2':4,5]thieno[3,2-d]pyrimidine-2,4(1H,3H)-dione hydrochloride [Example 33]”, the “In Vitro Characterization (pA2) Rat Vas” value is reported as 9.02.

Same assay, conditions: phenylephrine-induced contraction; Schild plot; read-out: In Vitro Characterization (pA2) Rat Vas (converted)
For `O=c1[nH]c2c(sc3cccnc32)c(=O)n1CCCCN1C[C@@H]2COc3ccccc3[C@@H]2C1` (racemic) [Example 70, 3-[4-((±)-cis-1,2,3,3a,4,9b-hexahydro-[1]-benzopyrano[3,4-c]pyrrol-2-yl)butyl]-pyrido[2',3':4,5]thieno[3,2-d]pyrimidine-2,4(1H,3H)-dione dihydrochloride], the Kb was 6.31 nM. Work on `COc1cccc2c1[C@H]1CN(CCCCn3c(=O)[nH]c4c(sc5nccnc54)c3=O)C[C@@H]1CO2.Cl.Cl` (racemic) [Example 74, 3-[4-((±)-trans-9-Methoxy-1,2,3,3a,4,9b-hexahydro-[1]-benzopyrano[3,4-c]pyrrol-2-yl)butyl]-pyrazino[2',3':4,5]thieno[3,2-d]pyrimidine-2,4(1H,3H)-dione dihydrochloride] yielded a Kb of 0.794 nM.
